Assay results as given in patent US20240383954A1, “PEPTIDE INHIBITORS OF INTERLEUKIN-23 RECEPTOR AND THEIR USE TO TREAT INFLAMMATORY DISEASES” (Janssen Biotech, Inc., priority 2020, published 2024).
Starred links: 1 amine or outer side, 2 acyl side, 3 side chain; linkers in the order of their positions; H or OH if unused. Positions of bridges follow the written chain, without caps; N, C: chain ends. Non-standard residues stand in square brackets, D forms with d. Residues, ends and D or L forms follow the SMILES beside them. *: point of attachment. X3 = C[C@H](c1ccc2ccccc2c1)[C@H](N[*:1])C(=O)[*:2]; Trp(7-Me) = Cc1cccc2c(C[C@H](N)C(=O)O)c[nH]c12; Ac6c(4,4-F2) = NC1(C(=O)O)CCC(F)(F)CC1; 2Nal = N[C@@H](Cc1ccc2ccccc2c1)C(=O)O; AEF = NCCOc1ccc(C[C@H](N)C(=O)O)cc1; Pen = CC(C)(S)[C@H](N)C(=O)O; Ac5c = NC1(C(=O)O)CCCC1; Thp = NC1(C(=O)O)CCOCC1; NHBn = c1ccc(CN*)cc1; Propionyl = CCC(=O)*; X2 = c1c[nH]c(CN*)n1; X7 = Nc1cccc(N*)c1; X4 = C1CC(N*)CCN1

Target: IL-23R (Homo sapiens, UniProt Q5VWK5)
Test: cell-based
Conditions: PBMC pSTAT3 IC50 (nM), PBMCs from healthy donors, IL-23 5 ng/mL, 30 minutes, phosphorylated STAT3
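Note: cryopreserved PBMCs stimulated at 37 °C in 5% CO2, then lysed, with phosphorylated STAT3 quantified in lysates using a phospho-STAT panel kit.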

Sequence of IL-23R (Q5VWK5 24-629): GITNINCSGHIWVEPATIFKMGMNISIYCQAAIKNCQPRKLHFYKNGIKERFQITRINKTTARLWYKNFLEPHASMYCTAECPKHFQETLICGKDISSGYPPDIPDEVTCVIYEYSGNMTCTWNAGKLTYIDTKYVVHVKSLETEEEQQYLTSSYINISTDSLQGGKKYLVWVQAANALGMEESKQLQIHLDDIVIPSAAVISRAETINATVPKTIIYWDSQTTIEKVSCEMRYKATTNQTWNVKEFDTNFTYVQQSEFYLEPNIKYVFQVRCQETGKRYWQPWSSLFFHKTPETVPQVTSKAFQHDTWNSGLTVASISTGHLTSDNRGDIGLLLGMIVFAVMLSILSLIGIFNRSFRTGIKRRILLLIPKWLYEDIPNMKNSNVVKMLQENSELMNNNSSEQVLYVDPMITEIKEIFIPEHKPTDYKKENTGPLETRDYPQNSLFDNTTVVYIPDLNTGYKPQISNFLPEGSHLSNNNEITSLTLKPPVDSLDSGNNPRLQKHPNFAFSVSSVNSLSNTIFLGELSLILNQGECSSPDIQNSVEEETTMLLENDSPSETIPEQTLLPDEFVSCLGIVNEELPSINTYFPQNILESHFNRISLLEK

| SMILES | IC50 [nM] |
| --- | --- |
| CCCC(=O)NCCCC[C@H](NC(=O)C1(NC(=O)[C@H](Cc2ccc3ccccc3c2)NC(=O)[C@H](Cc2ccc(OCCN)cc2)NC(=O)[C@H]2NC(=O)[C@H](CCC(N)=O)NC(=O)[C@H](Cc3c[nH]c4ccccc34)NC(=O)[C@H]([C@@H](C)O)NC(=O)[C@H](CCC(N)=O)NC(=O)[C@@H](NC(=O)[C@@H](CCCNC(=N)N)NC(C)=O)C(C)(C)SSC2(C)C)CCOCC1)C(=O)N[C@@H](CC(N)=O)C(=O)NC1(C(N)=O)CCOCC1 [Compound 52, Ac-[(D)Arg]-[Pen]-Q-T-W-Q-[Pen]-Phe[4-(2-aminoethoxy)]-[2-Nal]-[THP]-[Lys(COPr)]-N-[THP]-NH2] | 16 |
| CC(=O)NCCCC[C@@H]1NC(=O)[C@H](Cc2c[nH]c3c(C)cccc23)NC(=O)[C@H]([C@@H](C)O)NC(=O)[C@H](CC(N)=O)NC(=O)[C@@H](NC(=O)[C@@H](CCCNC(=N)N)NC(C)=O)C(C)(C)SSC(C)(C)[C@@H](C(=O)N[C@@H](Cc2ccc(OCCN)cc2)C(=O)N[C@@H](Cc2ccc3ccccc3c2)C(=O)NC2(C(=O)N[C@@H](CCC(=O)O)C(=O)N[C@@H](CC(N)=O)C(=O)NC3(C(N)=O)CCOCC3)CCC(F)(F)CC2)NC1=O [Compound 303, MeCO-r-Pen-N-T-7MeW-K(Ac)-Pen-AEF-2Nal-4diFAchx-E-N-THP--CONH2] (Ac-[dR][Pen]NT[Trp(7-Me)]K(Ac)[Pen][AEF][2Nal][Ac6c(4,4-F2)]EN[Thp]-NH2; disulfide 2-7) | 1.3 |
| CC(=O)NCCCC[C@@H]1NC(=O)[C@H](Cc2c[nH]c3c(C)cccc23)NC(=O)[C@H]([C@@H](C)O)NC(=O)[C@H](CC(N)=O)NC(=O)[C@@H](NC(C)=O)C(C)(C)SSC(C)(C)[C@@H](C(=O)N[C@@H](Cc2ccc(OCCN)cc2)C(=O)N[C@@H](Cc2ccc3ccccc3c2)C(=O)N[C@@](C)(CCCCN)C(=O)N[C@@H](CCCCNC(C)=O)C(=O)N[C@@H](CC(N)=O)C(=O)N[C@@](C)(Cc2ccccc2)C(=O)N[C@H](Cc2cccc(N)c2)C(N)=O)NC1=O [Compound 115, Ac-[Pen]-N-T-[W(7-Me)]-[Lys(Ac)]-[Pen]-Phe[4-(2-aminoethoxy)]-[2-Nal]-[a-MeLys]-[Lys(Ac)]-N-[a-MePhe]-(D)Phe[3-NH2]-NH2] | 39 |
| CC(=O)NCCCC[C@@H]1NC(=O)[C@H](Cc2c[nH]c3ccccc23)NC(=O)[C@H]([C@@H](C)O)NC(=O)[C@H](CC(N)=O)NC(=O)[C@@H](NC(C)=O)C(C)(C)SSC(C)(C)[C@@H](C(=O)N[C@@H](Cc2ccc(OCCN)cc2)C(=O)N[C@@H](Cc2ccc3ccccc3c2)C(=O)N[C@@](C)(CCCCN)C(=O)N[C@@H](CCCCNC(C)=O)C(=O)N[C@@H](CC(N)=O)C(=O)N[C@@](C)(Cc2ccccc2)C(N)=O)NC1=O [Compound 98, Ac-[Pen]-N-T-W-[Lys(Ac)]-[Pen]-Phe[4-(2-aminoethoxy)]-[2-Nal]-[a-MeLys]-[Lys(Ac)]-N-[a-MePhe]-NH2] | 15 |
| CC(=O)N[C@H](CCCNC(=N)N)C(=O)N[C@@H]1C(=O)N[C@@H](CCC(N)=O)C(=O)N[C@@H]([C@@H](C)O)C(=O)N[C@@H](Cc2c[nH]c3ccccc23)C(=O)N[C@@H](CCC(N)=O)C(=O)N[C@H](C(=O)N[C@@H](Cc2ccc(OCCN)cc2)C(=O)N[C@@H](Cc2ccc3ccccc3c2)C(=O)NC2(C(=O)N[C@@H](CCC(=O)O)C(=O)N[C@@H](CC(N)=O)C(=O)N[C@@H](CC(=O)NCc3ccccc3)C(N)=O)CCOCC2)C(C)(C)SSC1(C)C [Compound 110, Ac-[(D)Arg]-[Pen]-Q-T-W-Q-[Pen]-Phe[4-(2-aminoethoxy)]-[2-Nal]-[THP]-E-N-[(N-benzyl)Asn]-NH2] (Ac-[dR][Pen]QTWQ[Pen][AEF][2Nal][Thp]END(NHBn)-NH2; disulfide 2-7) | 700 |
| CC(=O)N[C@H](CCCNC(=N)N)C(=O)N[C@H]1CCSC[C@@H](C(=O)N[C@@H](Cc2ccc(OCCN)cc2)C(=O)N[C@@H](Cc2ccc3ccccc3c2)C(=O)NC2(C(=O)N[C@@](C)(CCC(=O)O)C(=O)N[C@@H](CC(N)=O)C(=O)N[C@@](C)(Cc3ccc(O)cc3)C(N)=O)CCOCC2)NC(=O)[C@H](CCC(N)=O)NC(=O)[C@H](Cc2c[nH]c3ccccc23)NC(=O)[C@H]([C@@H](C)O)NC(=O)[C@H](CCC(N)=O)NC1=O [Compound 44, Ac-[(D)Arg]-[Abu]-Q-T-W-Q-[Cys]-Phe[4-(2-aminoethoxy)]-[2-Nal]-[THP]-[aMeGlu]-N-[aMeTyr]-NH2] | 9.3 |
| CC(=O)NCCCC[C@@H]1NC(=O)[C@H](Cc2c[nH]c3c(C)cccc23)NC(=O)[C@H]([C@@H](C)O)NC(=O)[C@H](CC(N)=O)NC(=O)[C@@H](NC(C)=O)C(C)(C)SSC(C)(C)[C@@H](C(=O)N[C@@H](Cc2ccc(OCCN)cc2)C(=O)N[C@@H](Cc2ccc3ccccc3c2)C(=O)N[C@@](C)(CCCCN)C(=O)N[C@@H](CCCCNC(C)=O)C(=O)N[C@@H](CC(N)=O)C(=O)N[C@@](C)(Cc2ccccc2)C(N)=O)NC1=O [Compound 76, Ac-[Pen]-N-T-[W(7-Me)]-[Lys(Ac)]-[Pen]-Phe[4-(2-aminoethoxy)]-[2-Nal]-[a-MeLys]-[Lys(Ac)]-N-[a-MePhe]-NH2] | 11 |
| CCC(=O)N[C@H](CCCNC(=N)N)C(=O)N[C@@H]1C(=O)N[C@@H](CCC(N)=O)C(=O)N[C@@H]([C@@H](C)O)C(=O)N[C@@H](Cc2c[nH]c3ccccc23)C(=O)N[C@@H](CCC(N)=O)C(=O)N[C@H](C(=O)N[C@@H](Cc2ccc(OCCN)cc2)C(=O)N[C@H](C(=O)NC2(C(=O)N[C@@H](CCC(=O)O)C(=O)N[C@@H](CC(N)=O)C(=O)NC3(C(N)=O)CCOCC3)CCOCC2)[C@H](C)c2ccc3ccccc3c2)C(C)(C)SSC1(C)C [Compound 307, EtCO-r-Pen-Q-T-W-Q-Pen-AEF-bMe2Nal(2S,3R)-THP-E-N-THP---CONH2] (Propionyl-[dR][Pen]QTWQ[Pen][AEF][X3][Thp]EN[Thp]-NH2; disulfide 2-7) | 52 |
| CC(=O)N[C@H](CCCNC(=N)N)C(=O)N[C@@H]1C(=O)N[C@@H](CCC(N)=O)C(=O)N[C@@H]([C@@H](C)O)C(=O)N[C@@H](Cc2c[nH]c3ccccc23)C(=O)N[C@@H](CCC(N)=O)C(=O)N[C@H](C(=O)N[C@@H](Cc2ccc(OCCN)cc2)C(=O)N[C@@H](Cc2ccc3ccccc3c2)C(=O)NC2(C(=O)N[C@@H](CCC(=O)O)C(=O)N[C@@H](CC(N)=O)C(=O)N[C@@H](CC(=O)NC3CCNCC3)C(N)=O)CCOCC2)C(C)(C)SSC1(C)C [Compound 127, Ac-[(D)Arg]-[Pen]-Q-T-W-Q-[Pen]-Phe[4-(2-aminoethoxy)]-[2-Nal]-[THP]-E-N-[(N-Pip)Asn]-NH2] (Ac-[dR][Pen]QTWQ[Pen][AEF][2Nal][Thp]END(X4)-NH2; disulfide 2-7) | 48 |
| CC(=O)NCCCC[C@@H]1NC(=O)[C@H](Cc2c[nH]c3ccccc23)NC(=O)[C@H]([C@@H](C)O)NC(=O)[C@H](CC(N)=O)NC(=O)[C@@H](NC(=O)[C@@H](CCCNC(=N)N)NC(C)=O)C(C)(C)SSC(C)(C)[C@@H](C(=O)N[C@@H](Cc2ccc(OCCN)cc2)C(=O)N[C@@H](Cc2ccc3ccccc3c2)C(=O)NC2(C(=O)N[C@@H](CCC(=O)O)C(=O)N[C@@H](CC(N)=O)C(=O)NC3(C(N)=O)CCOCC3)CCCC2)NC1=O [Compound 88, Ac-[(D)Arg]-[Pen]-N-T-W-[Lys(Ac)]-[Pen]-Phe[4-(2-aminoethoxy)]-[2-Nal]-[Acvc]-E-N-[THP]-NH2] (Ac-[dR][Pen]NTWK(Ac)[Pen][AEF][2Nal][Ac5c]EN[Thp]-NH2; disulfide 2-7) | 3.7 |
| CCC(=O)N[C@H](CCCNC(=N)N)C(=O)N[C@H]1CCSC[C@@H](C(=O)N[C@@H](Cc2ccc(OCCN)cc2)C(=O)N[C@@H](Cc2ccc3ccccc3c2)C(=O)NC2(C(=O)N[C@@H](CCC(=O)O)C(=O)N[C@@H](CC(N)=O)C(=O)NC3(C(N)=O)CCOCC3)CCOCC2)NC(=O)[C@H](CCC(N)=O)NC(=O)[C@H](Cc2c[nH]c3ccccc23)NC(=O)[C@H]([C@@H](C)O)NC(=O)[C@H](CCC(N)=O)NC1=O [Compound 2, [Propionic_acid]-[(D)Arg]-[Abu]-Q-T-W-Q-[Cys]-Phe[4-(2-aminoethoxy)]-[2-Nal]-[THP]-E-N-[THP]-NH2] | 3.3 |
| CC(=O)N[C@H](CCCNC(=N)N)C(=O)N[C@@H]1C(=O)N[C@@H](CCC(N)=O)C(=O)N[C@@H]([C@@H](C)O)C(=O)N[C@@H](Cc2c[nH]c3ccccc23)C(=O)N[C@@H](CCC(N)=O)C(=O)N[C@H](C(=O)N[C@@H](Cc2ccc(OCCN)cc2)C(=O)N[C@@H](Cc2ccc3ccccc3c2)C(=O)NC2(C(=O)N[C@@H](CCC(=O)O)C(=O)N[C@@H](CC(N)=O)C(=O)N[C@@H](CC(=O)NCc3ncc[nH]3)C(N)=O)CCOCC2)C(C)(C)SSC1(C)C [Compound 137, Ac-[(D)Arg]-[Pen]-Q-T-W-Q-[Pen]-Phe[4-(2-aminoethoxy)]-[2-Nal]-[THP]-E-N-[(N-(imidazol-2-yl)methyl)Asn]-NH2] (Ac-[dR][Pen]QTWQ[Pen][AEF][2Nal][Thp]END(X2)-NH2; disulfide 2-7) | 14 |
| CC(=O)N[C@H](CCCNC(=N)N)C(=O)N[C@@H]1C(=O)N[C@@H](CCC(N)=O)C(=O)N[C@@H]([C@@H](C)O)C(=O)N[C@@H](Cc2c[nH]c3ccccc23)C(=O)N[C@@H](CCC(N)=O)C(=O)N[C@H](C(=O)N[C@@H](Cc2ccc(OCCN)cc2)C(=O)N[C@@H](Cc2ccc3ccccc3c2)C(=O)NC2(C(=O)N[C@@H](CCC(=O)O)C(=O)N[C@@H](CC(N)=O)C(=O)N[C@@H](CC(=O)Nc3cccc(N)c3)C(N)=O)CCOCC2)C(C)(C)SSC1(C)C [Compound 130, Ac-[(D)Arg]-[Pen]-Q-T-W-Q-[Pen]-Phe[4-(2-aminoethoxy)]-[2-Nal]-[THP]-E-N-[(N-(3-aminophenyl))Asn]-NH2] (Ac-[dR][Pen]QTWQ[Pen][AEF][2Nal][Thp]END(X7)-NH2; disulfide 2-7) | 9.2 |
| CC(=O)N[C@H](CCCNC(=N)N)C(=O)N[C@H]1CCSC[C@@H](C(=O)N[C@@H](Cc2ccc(OCCN)cc2)C(=O)N[C@@H](Cc2ccc3ccccc3c2)C(=O)NC2(C(=O)N[C@@](C)(CCC(=O)O)C(=O)N[C@@H](CC(N)=O)C(=O)N[C@@](C)(Cc3ccc(F)cc3)C(N)=O)CCOCC2)NC(=O)[C@H](CCC(N)=O)NC(=O)[C@H](Cc2c[nH]c3ccccc23)NC(=O)[C@H]([C@@H](C)O)NC(=O)[C@H](CCC(N)=O)NC1=O [Compound 36, Ac-[(D)Arg]-[Abu]-Q-T-W-Q-[Cys]-Phe[4-(2-aminoethoxy)]-[2-Nal]-[THP]-[aMeGlu]-N-[aMe(4-F)Phe]-NH2] | 14 |
